How the values were obtained:
[1] = biological target: T1, recombinant Factor C (rFC) (Carcinoscorpius rotundicauda, UniProt Q26422); assay: recombinant Factor C (rFC) assay with different detergents and detergent concentrations; type: biochemical; conditions: for Detergent concentration range for rFC inhibition / Detergent concentration range for rFC enhancing: 1 EU/ml EC-6 endotoxin, DPR-coumarin substrate, data after 30 minutes
T1 construct: made in house; host or cells: Culture supernatant, lot 031901I
T1 sequence (Q26422 26-1019): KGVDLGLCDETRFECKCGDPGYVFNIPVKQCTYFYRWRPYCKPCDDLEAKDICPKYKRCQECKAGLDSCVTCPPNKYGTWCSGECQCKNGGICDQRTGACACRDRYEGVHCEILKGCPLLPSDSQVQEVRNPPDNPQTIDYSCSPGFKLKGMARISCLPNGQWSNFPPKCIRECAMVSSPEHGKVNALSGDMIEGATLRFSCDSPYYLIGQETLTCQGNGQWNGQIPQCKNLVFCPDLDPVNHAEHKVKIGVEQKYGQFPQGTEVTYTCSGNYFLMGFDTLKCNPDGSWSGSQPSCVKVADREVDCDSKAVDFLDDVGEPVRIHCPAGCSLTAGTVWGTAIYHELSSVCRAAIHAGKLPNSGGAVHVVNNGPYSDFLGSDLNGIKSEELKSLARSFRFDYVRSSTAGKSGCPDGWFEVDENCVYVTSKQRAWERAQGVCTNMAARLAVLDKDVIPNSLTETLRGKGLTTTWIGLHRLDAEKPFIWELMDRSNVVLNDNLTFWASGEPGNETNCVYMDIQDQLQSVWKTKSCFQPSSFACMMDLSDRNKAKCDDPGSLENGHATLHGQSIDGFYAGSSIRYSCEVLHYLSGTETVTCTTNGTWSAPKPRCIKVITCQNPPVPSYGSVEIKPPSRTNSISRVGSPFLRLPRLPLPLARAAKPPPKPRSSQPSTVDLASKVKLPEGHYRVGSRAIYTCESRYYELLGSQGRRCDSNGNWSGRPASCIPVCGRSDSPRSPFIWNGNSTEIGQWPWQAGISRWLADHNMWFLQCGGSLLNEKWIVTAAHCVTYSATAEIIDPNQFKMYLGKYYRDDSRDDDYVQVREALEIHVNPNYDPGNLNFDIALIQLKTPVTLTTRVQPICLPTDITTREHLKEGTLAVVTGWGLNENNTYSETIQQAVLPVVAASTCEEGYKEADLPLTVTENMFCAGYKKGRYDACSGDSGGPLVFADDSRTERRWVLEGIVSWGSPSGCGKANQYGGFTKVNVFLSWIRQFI
Protocol: The recombinant Factor C (rFC) assay was carried out using 20 μl of each detergent (˜10× of final concentration), 150 μl of 1 EU/ml EC-6, 10 μl of rFC supernatant 031901I, 20 μl of 300 mM Tris, pH 8.0, and 20 μl of 0.55 mM DPR-coumarin substrate. The results of the assay were read at 38° C. using a Cytofluor reader set at 390/440 nm, 5 minutes per cycle, for 1 hour. The data were graphed after 30 minutes.

[2] = biological target: T2, recombinant Carcinoscorpius rotundicauda Factor C (Carcinoscorpius rotundicauda, UniProt Q26422); assay: endotoxin assay of Examples 1 and 13 (two-step and one-step); type: biochemical; conditions: assay exemplified in Examples 1 and 13
T2 construct: made in house; host or cells: Sf9 insect cells, baculovirus (pFASTBAC1 / bacmid); the secreted protein is used as culture supernatant
T2 sequence (Q26422 26-1019): T1 sequence (Q26422 26-1019)
Protocol: Endotoxin was pre-incubated with culture medium containing recombinant Carcinoscorpius rotundicauda Factor C obtained from recombinant Factor C-producing Sf9 cells for 1 hour in assay buffer (30 mM Tris, pH 8.0, 30 mM NaCl, 0.3% lactose, and 0.0025% Zwittergent 3-14). The substrate N-t-Boc-Asp(Obzl)-Pro-Arg-7-Amido-4-methyl coumarin (DPR-coumarin) was added to the mixture to a final concentration of […]. The fluorescence generated from the cleavage of the substrate by activated Factor C was measured after 15-20 minutes. Results of a similar assay carried out using the substrate N-t-Boc-Val-Pro-Arg-7-Amido-4-methyl coumarin at a final concentration of 100 mM are shown in FIG. 5.
A one-step endotoxin assay can be carried out in a 96-well plate, using 100 μl each of blank and endotoxin standards. […] The plate is incubated at 37° C. for 1 hour. Excitation and emission are read at 390 and 440 nm, respectively, in a fluorescence microplate reader.

| Molecule | width of the enhancing concentration range [1] | Detergent concentration range for rFC inhibition [1] | optimal concentration of the surfactant [2] | Detergent concentration range for rFC enhancing [1] |
| --- | --- | --- | --- | --- |
| CCCCCCCCS[C@@H]1O[C@H](CO)[C@@H](O)[C@H](O)[C@H]1O [OTG, n-Octyl-beta-D-thioglycopyranoside] | narrow | >=0.5% | – | – |
| CCCCCCCCCCCCCC[N+](C)(C)CCCS(=O)(=O)[O-] [Zwittergent 3-14, N-tetradecyl-N,N-dimethyl-3-ammonio-1-propanesulfonate] | narrow | >=0.004% | 0.0025% | – |
| Triton X-100 | narrow | >=0.008% | – | – |
| CCCCCCCC/C=C\CCCCCCCC(=O)OCCOCC(OCCO)C1OCC(OCCO)C1OCCO (centres unmarked) [Tween 80, polyoxyethylene (20) sorbitan monooleate] | wide | >0.25% | – | 0.001-0.25% |
| CCCCCCCCCCCCOS(=O)(=O)[O-].[Na+] [SDS, sodium dodecyl sulfate] | – | >=0.0004% | – | – |
| CCCCCCCCCCCC(=O)OCCOCCOCCOCCOCCOCCOCCOCCOCCOCCOCCOCCOCCOCCOCCOCCOCCOCCOCCOCCOCC(OCCOCCOCCOCCOCCOCCOCCOCCOCCOCCOCCOCCOCCOCCOCCOCCOCCOCCOCCOCCO)C1OCC(OCCOCCOCCOCCOCCOCCOCCOCCOCCOCCOCCOCCOCCOCCOCCOCCOCCOCCOCCOCCO)C1OCCOCCOCCOCCOCCOCCOCCOCCOCCOCCOCCOCCOCCOCCOCCOCCOCCOCCOCCOCCO (centres unmarked) [Tween 20, polyoxyethylene (20) sorbitan monolaurate] | wide | >0.5% | – | 0.001-0.5% |
